Results on one molecule are retold here after article PMC7285002, “Enhanced Oral Bioavailability of the Pharmacologically Active Lignin Magnolol via Zr-Based Metal Organic Framework Impregnation” (Pharmaceutics, 2020).

Read-outs that look alike come from different tables or passages of the source.

Data set [1] relates to female Sprague Dawley rats. Put plainly: Acute oral toxicity (OECD 425, limit test). Type of data set: in vivo. On the procedure:
Animal toxicity test was done in accordance with the Organization for Economic Cooperation and Development guidelines for testing chemical compounds using the up and down method (OECD procedure 425). Prior to dosing, 2 mL of blood was extracted through tail clipping and was submitted for alanine aminotransferase (ALT) and creatinine level determinations for signs of liver and kidney damages, respectively. […] In cases where the first animal survived, an additional four rats were subjected to the same dose. […] An additional rat was administered with the solvent only to compare the variation in the animal species. Test animals that survived in the 14-day observation were euthanized in a carbon dioxide chamber followed by the harvesting of blood, liver and kidney of all test animals. The blood was once again submitted for ALT and creatinine level determination. The organs were submitted for tissue mounting and histopathological evaluation.

Data set [2] in a line: Oral bioavailability / pharmacokinetic study (serum magnolol by HPLC). The data set is classed as in vivo. The conditions noted are these: Sprague-Dawley (SD), rat, 100 mg kg^−1, male SD rats; for AUC(0-t): read-out: AUC0–720 (converted); for half-life: male, 100 mg/kg. The protocol: (§1) The determination of the bioavailability of magnolol and its tissue distribution to the brain, liver, and kidney was done according to the method of Ding et al. (2018), Higashi (2015), Lin et al. (2011), and Kotani et al. (2005).
For the pharmacokinetic study, male SD rats were randomly divided into 4 groups (n = 3). […] Blood samples (approximately 200 to 250 µL) were collected at predetermined time points (15, 30, 60, 120, 180, 240, 480, and 720 min) and allowed to clot and centrifuged at 4000 rpm at 4 °C for 5 min to obtain the serum. The obtained sera were treated with equal amount of acetonitrile and then centrifuged again to obtain the protein-free sera.
(§2) Samples were reconstituted with acetonitrile prior to HPLC analysis. The samples were injected into the HPLC (n = 3). The quantity of magnolol was computed using a standard calibration curve.

Data set [3] in a line: Tissue distribution of unconjugated magnolol. The data set is classed as in vivo. The conditions noted are these: Sprague-Dawley (SD), rat, 1 h after oral 50 mg kg^−1, male SD rats. On the procedure: as §1
After one hour of administration, the animals were euthanized in a carbon dioxide chamber and their organs (brain, liver, and kidney) were collected. The organs were weighed and homogenized in 10 mL of acetonitrile, and centrifuged at 10,000 rpm for 10 min. The supernatant was dried under reduced pressure.
as §2

The conditions of data set [4]: low bioavailability of magnolol, stated in the abstract without reference; cited from earlier work.

With `C=CCc1ccc(O)c(-c2cc(CC=C)ccc2O)c1` [Magnolol, 4-Allyl-2-(5-allyl-2-hydroxy-phenyl)phenol], the “survival after limit dose” value in data set [1] (2000 mg kg^−1 oral, female SD rats, 14 days) is “All test animals survived”. Moreover, the “mean serum ALT level, before vs after administration” value in data set [1] (2000 mg kg^−1 oral, paired t-test) is reported as “no significant difference”. In addition, the “median lethal dose (LD50)” value in data set [1] (oral gavage, female SD rats, 14-day observation, assumed from limit test) is on record as “greater than 2000 mg kg^−1”. Also, the area under the curve AUC(0-inf) (usually total exposure, with the tail of the curve extrapolated) was 66900 ng·h/mL in data set [2] (IP (intraperitoneal route)) and 15100 ng·h/mL in data set [2] (PO (oral route)). Besides, the maximum concentration (Cmax) (commonly the peak of the concentration-time curve) in data set [2] (IP (intraperitoneal route)) worked out at 5100 ± 650 ng/mL; in data set [2] (PO (oral route)), 2570 ± 260 ng/mL. For the same molecule, the Tmax (usually the time from dosing to the highest level) in data set [2] (IP (intraperitoneal route)) is 64.1 min; in data set [2] (PO (oral route)) it was 55.8 min. Further, the AUC(0-t) is 43000 ng·h/mL in data set [2] (IP (intraperitoneal route)) and 13700 ng·h/mL in data set [2] (PO (oral route)). Besides, the half-life in data set [2] (ip, IP (intraperitoneal route), read-out: Abs T1/2 (absorption half-life)) was 17.1 ± 3.63 min; in data set [2] (ip, IP (intraperitoneal route), read-out: T1/2 (elimination half-life)), 461 ± 37.4 min; in data set [2] (po, PO (oral route), read-out: Abs T1/2 (absorption half-life)), 23.3 ± 3.16 min; in data set [2] (po, PO (oral route), read-out: T1/2 (elimination half-life)), 100 ± 20.4 min. Besides, the concentration at 1 h was 374 ± 22 ng/g in data set [3] (brain, read-out: mean magnolol concentration, Brain); 3740 ± 890 ng/g in data set [3] (kidney, read-out: mean magnolol concentration, Kidneys); 790 ± 180 ng/g in data set [3] (liver, read-out: mean magnolol concentration, Liver). Further, the bioavailability in data set [4] is 4–5%.
